{"source": "patent US8114895B2", "about": "“Use of bipyridine compound ‘Caerulomycin A’ derivatives and analogs thereof as immunosuppressive agents” (Council of Science and Industrial Research, priority 2005, dated 2012)", "key": {"naïve CD4^+ T cells": {"tested_on": "naïve CD4^+ T cells", "test": "Proliferation of naïve CD4+ T cells", "type": "cell-based", "procedure": "Examples establishing the role of Caerulomycin A [isolated from a novel species of Actinoalloteichus] in inducing immunosuppression based on the following: • Splenocytes of BALB/c mice were stimulated with either ConA (1 μg/ml and 2 μg/ml) or LPS (5 μg/ml and 10 μg/ml) and were cultured with different concentrations of Caerulomycin A (0.0003-0.1 μg/ml). After 48 h, the cultures were pulsed with 0.5 μCi of [^3H]-thymidine and harvested 14 h later by automatic cell harvester. Radioactivity incorporated was measured by liquid scintillation counting. • Antigen ovalbumin (100 μg/ml) emulsified in Freund's complete adjuvant was injected in a group consisting of 5 BALB/c mice. […] Radioactivity incorporated was measured by liquid scintillation. The culture supernatants were collected after 48 h and cytokines were measured by ELISA. • Immunosuppressive effect of different doses of Caerulomycin A was monitored on naïve CD4^+ T cells, antigen reactive CD4^+ T cells, Th2 clone and Th1 hybridoma. […] Radioactivity incorporated was measured by liquid scintillation. • Immunosuppressive effect of Caerulomycin A on MLR reaction. […] After 4 days, the cultures were pulsed with 1 μCi of [^3H]-thymidine and harvested 16 h later and radioactivity incorporated was measured by liquid scintillation counting. • In vivo immunosuppressive effect of Caerulomycin A on the proliferation of T cells. […]"}, "Th2 clones": {"tested_on": "Th2 clones", "test": "Kinetics of the effect on the proliferation of Th2 clones", "type": "cell-based", "conditions": "anti-CD3 Ab 0.5 μg/ml, read-out: inhibitory effect on Th2 cells", "procedure": "Th2 clones (5×10^4/well) were stimulated with anti-CD3 Ab (0.5 μg/ml). Caerulomycin A (0.05 μg/ml) was added either at the initiation of the cultures (time 0) or at various time points (4 h-48 h) After 48 h of the cultures, [^3H]-thymidine was added, and its incorporation was measured 12 h later."}, "antigen specific T cells": {"tested_on": "antigen specific T cells", "test": "In vivo proliferation of antigen specific T cells (OVA-primed mice injected with drug, splenocytes cultured ex vivo)", "design": "species or system BALB/c mice", "conditions": "for proliferation of cells from antigen-primed animals injected with drug versus animals not administered drug: 25-100 μg/mice/day i.p. for 7 days", "procedure": "FIG. 1: Different groups, each comprising five animals were immunized with OVA, followed by CaeA administration daily for 7 days before mice were sacrificed. Splenocytes (2×10^5 cells/well) were isolated and cultured in vitro with 100 μg/ml OVA and varied doses of CaeA. After 72 h, [^3H]-thymidine was added, and its incorporation was measured 16 h later.\nFIG. 2: In another set of experiment, three different groups were immunized with OVA followed by administration of CaeA (25 μg/mice) in one of the group and Alcohol (vehicle control) in another group, daily for 7 days before mice were sacrificed. Splenocytes (2×10^5 cells/well) were isolated and cultured in vitro alone or with OVA 100 and 200 μg/ml (1.2). Each point represents the mean±SEM of triplicate determinations from one of the three representative experiments.\nOVA (2 mg/ml) was dissolved in PBS (0.01 M, pH 7.2) and emulsified in Freund's complete adjuvant (FCA). Emulsion (100 μl) was then injected intraperitoneally (i.p.) in 7 groups, comprising 5 BALB/c mice in each set. Four groups of animals were injected intraperitoneally daily with Caerulomycin A (25, 50, 75, 100 μg/100 μl/mice). The control groups were immunized intraperitoneally with 100 μl each of PBS and ethanol-PBS. After seven days, mice were sacrificed and splenocytes were isolated and pooled for in vitro proliferation.\nOvalbumin (3 mg/ml) was dissolved in PBS (pH 7.2) and emulsified in Freund's complete adjuvant (FCA). Emulsion (100 μl) was then injected intraperitoneally (i.p.) in different groups, comprising 5 BALB/c mice in each set. Four groups of animals were injected intraperitoneally daily with caerulomycin A (25, 50, 75, 100 μg/100 μl/mice). The control groups were immunized intraperitoneally with ethanol-PBS.\nAfter seven days, mice were sacrificed and splenocytes were pooled and used for proliferation assays. Splenocytes (2×10^5 cells/well) were cultured with OVA (100 μg/ml) in 200 μl RPMI/FCS-10% medium and with various concentrations of caerulomycin A (0.1-0.0003 μg/ml). The control cultures consisting of splenocytes incubated with different concentrations of caerulomycin A (no OVA), OVA and medium were also kept. After 72 h, the cultures were pulsed with 1 μCi of [^3H]-thymidine and harvested 14 h later. Radioactivity incorporated was measured by liquid scintillation counting and data are expressed as mean counts per minute (cpm).\nThe mice were administered with different doses of caerulomycin A for 7 days (FIG. 1). The animals were sacrificed and splenocytes were cultured in vitro with antigen and different concentrations of caerulomycin A (0.00625-0.10 μg/ml)."}, "B cells": {"tested_on": "B cells", "test": "Secretion of antibodies"}}, "note": "Read-outs that look alike come from different tables or passages of the source.", "data": [{"smiles": "COc1cc(/C=N/O)nc(-c2ccccn2)c1", "note": "[Caerulomycin A, (E)-4-methoxy-2,2′-bipyridine-6-carbaldehyde oxime]", "values": [{"measurement": "in vitro proliferation of naïve CD4+ T cells", "setting": "naïve CD4^+ T cells", "result": "suppression"}, {"measurement": "inhibition at 0.05 µg/mL", "setting": "Th2 clones; 0.05 μg/ml added after 42 h", "result": 56, "unit": "%"}, {"measurement": "inhibition at 0.05 µg/mL", "setting": "Th2 clones; 0.05 μg/ml added before 16 h of the initiation of the cultures", "result": "77 to 90", "unit": "%"}, {"measurement": "growth of cells from injected mice versus PBS-ethanol animals", "setting": "antigen specific T cells; 25 μg/mice/day for 7 days, FIG. 2", "result": "significant level of retardation in the growth"}, {"measurement": "proliferation of cells from antigen-primed animals injected with drug versus animals not administered drug", "setting": "antigen specific T cells; FIG. 1", "result": "substantial inhibition"}, {"measurement": "proliferation of cells from antigen-primed animals injected with drug versus animals not administered drug", "setting": "antigen specific T cells; FIG. 1, listed as caerulomycin A", "result": "substantial inhibition in the proliferation"}, {"measurement": "proliferation of cells from treated animals incubated in vitro with drug", "setting": "antigen specific T cells; cells incubated with 0.10 μg/ml of caerulomycin A, FIG. 1", "result": "Nearly complete inhibition"}, {"measurement": "optimum dosage required in vivo", "setting": "antigen specific T cells; mouse, in vivo", "result": 5.0, "unit": "mg/kg/body wt"}, {"measurement": "secretion of IgG1 type of antibodies", "setting": "B cells", "result": "inhibited the secretion"}, {"measurement": "secretion of IgG2a type of antibodies", "setting": "B cells", "result": "inhibited the secretion"}]}]}
